Source: patent publication US20230301300A1, “HERBICIDAL COMPOSITIONS” (SYNGENTA CROP PROTECTION AG, priority 2020, published 2023)

Columns and labels:
Format in all cases: in vivo
[1] = test system: Amaranthus retoflexus (AMARE); test: B1 Post-Emergence Efficacy - Test 1; conditions: 1000 g/ha, after 13 days, five point scale
Method in brief: (§1)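 Applied rate was 1000 g/ha, sprayed onto 8-day-old potted plants in aqueous acetone (50:50) with 0.5% Tween 20. Injury was recorded 13 days later as percentage damage converted to a 1–5 score.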

[2] = test system: Echinochloa crus-galli (ECHCG); test: B1 Post-Emergence Efficacy - Test 1; conditions: 1000 g/ha, after 13 days, five point scale
Method in brief: as §1

[3] = test system: Ipomoea hederacea (IPOHE); test: B1 Post-Emergence Efficacy - Test 1; conditions: 1000 g/ha, after 13 days, five point scale
Method in brief: as §1

[4] = test system: Lolium perenne (LOLPE); test: B1 Post-Emergence Efficacy - Test 1; conditions: 1000 g/ha, after 13 days, five point scale
Method in brief: as §1

[5] = test system: Setaria faberi (SETFA); test: B1 Post-Emergence Efficacy - Test 1; conditions: 1000 g/ha, after 13 days, five point scale
Method in brief: as §1

[6] = test system: Solanum nigrum (SOLNI); test: B1 Post-Emergence Efficacy - Test 1; conditions: 1000 g/ha, after 13 days, five point scale
Method in brief: as §1

[7] = test system: Bidens pilosa (BIDPI); test: B2 Post-Emergence Efficacy - Test 2; conditions: 15 days after application, 0-100 scale
Method in brief: (§2)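 A 0–100 damage rating taken 15 days after application. Plants: 12 days old at spraying, glasshouse-grown (16 h light, 65% humidity, day/night 24/18 or 20/16 °C), watered twice daily. Spray: aqueous IF50 formulation, 0.2% v/v Genapol X080.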

[8] = test system: Brachiaria plantaginea (BRAPL); test: B2 Post-Emergence Efficacy - Test 2; conditions: 15 days after application, 0=no damage, 100=total kill
Method in brief: as §2

[9] = test system: Digitaria sanguinalis (DIGSA); test: B2 Post-Emergence Efficacy - Test 2; conditions: 15 days after application, 0=no damage, 100=total kill
Method in brief: as §2

[10] = test system: Galium aparine (GALAP); test: B2 Post-Emergence Efficacy - Test 2; conditions: 15 days after application, 0-100 scale
Method in brief: as §2

[11] = test system: Hordeum vulgare (HORVW); test: B2 Post-Emergence Efficacy - Test 2; conditions: 15 days after application, 0-100 scale
Method in brief: as §2

[12] = test system: Kochia scoparia (KSHSC); test: B2 Post-Emergence Efficacy - Test 2; conditions: 15 days after application, 0-100 scale
Method in brief: as §2

[13] = test system: Lolium perenne (LOLPE); test: B2 Post-Emergence Efficacy - Test 2; conditions: 15 days after application, 0-100 scale
Method in brief: as §2

[14] = test system: Orysa sativa (ORYSA); test: B2 Post-Emergence Efficacy - Test 2; conditions: 15 days after application; for Herbicidal activity ORYSA: 0-100 scale; for Herbicidal activity on a 0-100 scale, ORYSA: 0=no damage, 100=total kill
Method in brief: as §2

[15] = test system: Setaria faberi (SETFA); test: B2 Post-Emergence Efficacy - Test 2; conditions: 15 days after application, 0=no damage, 100=total kill
Method in brief: as §2

[16] = test system: Sinapis arvensis (SINAR); test: B2 Post-Emergence Efficacy - Test 2; conditions: 15 days after application, 0-100 scale
Method in brief: as §2

[17] = test system: Zea mays (ZEAMX); test: B2 Post-Emergence Efficacy - Test 2; conditions: 15 days after application; for Herbicidal activity ZEAMX: 0-100 scale; for Herbicidal activity on a 0-100 scale, ZEAMX: 0=no damage, 100=total kill
Method in brief: as §2

Cc1nn(C)c(=O)c(-c2c(F)ccc(Cl)c2CCc2ccc(F)cc2)c1OC(=O)C(C)C [Compound 1.125, [5-[3-chloro-6-fluoro-2-[2-(4-fluorophenyl)ethyl]phenyl]-1,3-dimethyl-6-oxo-pyridazin-4-yl] 2-methylpropanoate]
10: Herbicidal activity on a 0-100 scale, DIGSA ([9]; 125 g/Ha) | Herbicidal activity HORVW ([11]; 60 g/Ha) | Herbicidal activity HORVW ([11]; 125 g/Ha) | Herbicidal activity HORVW ([11]; 250 g/Ha) | Herbicidal activity HORVW ([11]; 500 g/Ha) | Herbicidal activity on a 0-100 scale, SETFA ([15]; 30 g/Ha)
0: Herbicidal activity on a 0-100 scale, DIGSA ([9]; 15 g/Ha) | Herbicidal activity on a 0-100 scale, DIGSA ([9]; 30 g/Ha) | Herbicidal activity on a 0-100 scale, DIGSA ([9]; 60 g/Ha) | Herbicidal activity HORVW ([11]; 15 g/Ha) | Herbicidal activity HORVW ([11]; 30 g/Ha) | Herbicidal activity KCHSC ([12]; 15 g/Ha) | Herbicidal activity ORYSA ([14]; 15 g/Ha) | Herbicidal activity on a 0-100 scale, ORYSA ([14]; 15 g/Ha) | Herbicidal activity ORYSA ([14]; 30 g/Ha) | Herbicidal activity on a 0-100 scale, ORYSA ([14]; 30 g/Ha) | Herbicidal activity ORYSA ([14]; 60 g/Ha) | Herbicidal activity on a 0-100 scale, ORYSA ([14]; 60 g/Ha) | Herbicidal activity ORYSA ([14]; 125 g/Ha) | Herbicidal activity on a 0-100 scale, ORYSA ([14]; 125 g/Ha) | Herbicidal activity ORYSA ([14]; 250 g/Ha) | Herbicidal activity on a 0-100 scale, ORYSA ([14]; 250 g/Ha) | Herbicidal activity ORYSA ([14]; 500 g/Ha) | Herbicidal activity on a 0-100 scale, ORYSA ([14]; 500 g/Ha) | Herbicidal activity on a 0-100 scale, SETFA ([15]; 15 g/Ha) | Herbicidal activity ZEAMX ([17]; 15 g/Ha) | Herbicidal activity on a 0-100 scale, ZEAMX ([17]; 15 g/Ha)
20: Herbicidal activity GALAP ([10]; 30 g/Ha) | Herbicidal activity GALAP ([10]; 60 g/Ha) | Herbicidal activity on a 0-100 scale, SETFA ([15]; 60 g/Ha) | Herbicidal activity on a 0-100 scale, SETFA ([15]; 125 g/Ha) | Herbicidal activity on a 0-100 scale, SETFA ([15]; 250 g/Ha) | Herbicidal activity ZEAMX ([17]; 30 g/Ha) | Herbicidal activity on a 0-100 scale, ZEAMX ([17]; 30 g/Ha) | Herbicidal activity ZEAMX ([17]; 125 g/Ha) | Herbicidal activity on a 0-100 scale, ZEAMX ([17]; 125 g/Ha)
5 (5=80-100%): percentage damage caused to the plant, AMARE [1] | percentage damage caused to the plant, ECHCG [2] | percentage damage caused to the plant, IPOHE [3] | percentage damage caused to the plant, LOLPE [4] | percentage damage caused to the plant, SETFA [5] | percentage damage caused to the plant, SOLNI [6]
100: Herbicidal activity BIDPI ([7]; 500 g/Ha) | Herbicidal activity on a 0-100 scale, SETFA ([15]; 500 g/Ha)
90: Herbicidal activity LOLPE ([13]; 500 g/Ha) | Herbicidal activity SINAR ([16]; 125 g/Ha) | Herbicidal activity SINAR ([16]; 250 g/Ha) | Herbicidal activity SINAR ([16]; 500 g/Ha)
30: Herbicidal activity on a 0-100 scale, DIGSA ([9]; 250 g/Ha) | Herbicidal activity GALAP ([10]; 125 g/Ha) | Herbicidal activity KCHSC ([12]; 60 g/Ha) | Herbicidal activity ZEAMX ([17]; 60 g/Ha) | Herbicidal activity on a 0-100 scale, ZEAMX ([17]; 60 g/Ha)
80: Herbicidal activity BIDPI ([7]; 250 g/Ha) | Herbicidal activity on a 0-100 scale, BRAPL ([8]; 15 g/Ha) | Herbicidal activity on a 0-100 scale, BRAPL ([8]; 60 g/Ha) | Herbicidal activity on a 0-100 scale, BRAPL ([8]; 125 g/Ha) | Herbicidal activity on a 0-100 scale, BRAPL ([8]; 500 g/Ha) | Herbicidal activity LOLPE ([13]; 250 g/Ha) | Herbicidal activity SINAR ([16]; 60 g/Ha)
60: Herbicidal activity BIDPI ([7]; 15 g/Ha) | Herbicidal activity BIDPI ([7]; 30 g/Ha) | Herbicidal activity KCHSC ([12]; 250 g/Ha) | Herbicidal activity LOLPE ([13]; 60 g/Ha) | Herbicidal activity SINAR ([16]; 15 g/Ha) | Herbicidal activity SINAR ([16]; 30 g/Ha)
2: Herbicidal activity KCHSC ([12]; 30 g/Ha)
50: Herbicidal activity KCHSC ([12]; 125 g/Ha) | Herbicidal activity LOLPE ([13]; 30 g/Ha)
70: Herbicidal activity BIDPI ([7]; 60 g/Ha) | Herbicidal activity BIDPI ([7]; 125 g/Ha) | Herbicidal activity on a 0-100 scale, BRAPL ([8]; 250 g/Ha) | Herbicidal activity on a 0-100 scale, DIGSA ([9]; 500 g/Ha) | Herbicidal activity GALAP ([10]; 500 g/Ha) | Herbicidal activity KCHSC ([12]; 500 g/Ha) | Herbicidal activity LOLPE ([13]; 125 g/Ha) | Herbicidal activity ZEAMX ([17]; 500 g/Ha) | Herbicidal activity on a 0-100 scale, ZEAMX ([17]; 500 g/Ha)
40: Herbicidal activity GALAP ([10]; 250 g/Ha) | Herbicidal activity LOLPE ([13]; 15 g/Ha) | Herbicidal activity ZEAMX ([17]; 250 g/Ha) | Herbicidal activity on a 0-100 scale, ZEAMX ([17]; 250 g/Ha)
